In patent US8916593B2, “Alkoxy-substituted 2-aminopyridines as ALK inhibitors” (Pfizer Inc., priority 2010, dated 2014):

Key:
[1] = target: EML4-ALK wt v1 in NIH-3T3 cells (Homo sapiens, UniProt Q9UM73)
[2] = target: T1, human recombinant wild-type ALK kinase domain (amino acids 1093-1411) (Homo sapiens, UniProt Q9UM73); test: ALK enzyme assay 2 (microfluidic mobility shift assay); format: biochemical;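 further: kinase reaction run 1 h at room temperature, conversion quantified by electrophoretic separation of fluorescent peptide substrate from phosphorylated product, about 15-20% turnover without inhibitor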
T1 construct: ALK kinase domain (amino acids 1093-1411); made in house
T1 sequence (Q9UM73 1093-1411): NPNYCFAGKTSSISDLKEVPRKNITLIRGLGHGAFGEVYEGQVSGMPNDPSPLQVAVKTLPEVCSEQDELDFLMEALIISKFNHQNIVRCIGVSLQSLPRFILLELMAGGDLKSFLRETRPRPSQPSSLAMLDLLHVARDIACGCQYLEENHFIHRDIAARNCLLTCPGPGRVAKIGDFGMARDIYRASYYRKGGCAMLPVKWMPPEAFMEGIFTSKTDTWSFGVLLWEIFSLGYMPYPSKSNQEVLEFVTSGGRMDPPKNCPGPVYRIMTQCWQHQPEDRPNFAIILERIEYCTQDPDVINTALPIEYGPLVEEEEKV
Description: The reactions were incubated for 1 h at room temperature, stopped by the addition of 0.1 M EDTA, pH 8, and the extent of reactions (˜15-20% conversion with no inhibitor) was determined after electrophoretic separation of the fluorescently labeled peptide substrate and phosphorylated product on an LabChip EZ Reader II (Caliper Life Sciences, Hopkinton, Mass.).

Chain of EML4-ALK wt v1 in NIH-3T3 cells (Q9UM73 with tags, fused parts or gaps): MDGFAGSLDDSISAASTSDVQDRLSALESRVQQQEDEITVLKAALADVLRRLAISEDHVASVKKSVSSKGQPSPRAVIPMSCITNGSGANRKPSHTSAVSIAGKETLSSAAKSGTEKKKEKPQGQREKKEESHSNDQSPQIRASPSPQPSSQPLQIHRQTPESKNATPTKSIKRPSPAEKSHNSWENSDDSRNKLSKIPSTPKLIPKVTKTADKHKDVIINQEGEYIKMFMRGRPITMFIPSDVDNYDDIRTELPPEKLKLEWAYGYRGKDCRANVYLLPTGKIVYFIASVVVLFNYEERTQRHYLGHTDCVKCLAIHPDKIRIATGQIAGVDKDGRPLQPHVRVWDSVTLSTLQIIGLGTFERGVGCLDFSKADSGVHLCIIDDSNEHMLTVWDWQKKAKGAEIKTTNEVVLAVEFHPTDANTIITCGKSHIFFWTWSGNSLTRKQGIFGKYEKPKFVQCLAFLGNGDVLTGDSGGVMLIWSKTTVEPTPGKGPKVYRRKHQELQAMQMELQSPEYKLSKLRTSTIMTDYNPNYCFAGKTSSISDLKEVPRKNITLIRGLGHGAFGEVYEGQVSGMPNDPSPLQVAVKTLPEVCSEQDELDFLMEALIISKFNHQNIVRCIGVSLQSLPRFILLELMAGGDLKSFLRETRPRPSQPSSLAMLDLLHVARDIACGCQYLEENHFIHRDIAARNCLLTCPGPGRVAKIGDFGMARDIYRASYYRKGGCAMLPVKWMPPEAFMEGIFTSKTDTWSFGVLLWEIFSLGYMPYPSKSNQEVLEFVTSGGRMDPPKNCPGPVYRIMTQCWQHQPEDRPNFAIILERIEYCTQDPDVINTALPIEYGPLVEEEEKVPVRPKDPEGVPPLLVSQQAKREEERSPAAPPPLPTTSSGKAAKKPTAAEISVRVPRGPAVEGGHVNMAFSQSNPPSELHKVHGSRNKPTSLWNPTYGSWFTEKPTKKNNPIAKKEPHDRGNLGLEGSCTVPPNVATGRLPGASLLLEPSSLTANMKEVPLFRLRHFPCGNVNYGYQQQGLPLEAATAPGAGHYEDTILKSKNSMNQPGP

Row | Structure (SMILES) | IC50 [1] [nM] | Ki [2] [nM]
1 | COc1nc(CO)ccc1-c1cnc(N)c(O[C@H](C)c2cc(F)ccc2-n2nccn2)c1 [Example 93, (6′-amino-5′-{(1R)-1-[5-fluoro-2-(2H-1,2,3-triazol-2-yl)phenyl]ethoxy}-2-methoxy-3,3′-bipyridin-6-yl)methanol] | 12.7 | 0.43
2 | CC(O)c1ncc(-c2cnc(N)c(O[C@H](C)c3cc(F)ccc3-n3nccn3)c2)s1 (stereo partly drawn) [Example 94, 1-[5-(6-amino-5-{(1R)-1-[5-fluoro-2-(2H-1,2,3-triazol-2-yl)phenyl]ethoxy}pyridin-3-yl)-1,3-thiazol-2-yl]ethanol] | 22.1 | < 0.49
3 | CC(Oc1cc(-c2ccnn2C)cnc1N)c1cc(F)ccc1-c1nccn1C (stereo not drawn) [Example 63, 3-{1-[5-Fluoro-2-(1-methyl-1H-imidazol-2-yl)-phenyl]ethoxy}-5-(2-methyl-2H-pyrazol-3-yl)-pyridin-2-ylamine] | 2350 | 67
4 | COc1ccc(F)cc1C(C)Oc1nc(-c2cc(S(C)(=O)=O)cnc2OC)cnc1N (stereo not drawn) [Example 102, 3-[1-(5-fluoro-2-methoxyphenyl)ethoxy]-5-[2-methoxy-5-(methylsulfonyl)pyridin-3-yl]pyrazin-2-amine] | 89.3 | 1.21
5 | C[C@@H](Oc1cc(-c2cn([C@@H]3C[C@H]4CC[C@@H](C3)N4)nc2C#N)cnc1N)c1cc(F)ccc1-n1nccn1 [Example 140, 4-(6-amino-5-{(1R)-1-[5-fluoro-2-(2H-1,2,3-triazol-2-yl)phenyl]ethoxy}pyridin-3-yl)-1-[(3-exo)-8-azabicyclo[3.2.1]oct-3-yl]-1H-pyrazole-3-carbonitrile] | 15.9 | < 0.2
6 | C[C@@H](Oc1cc(-c2cnn([C@H]3CCCNC3)c2)cnc1N)c1cc(F)ccc1-n1nccn1 [Example 98, 3-{(1R)-1-[5-fluoro-2-(2H-1,2,3-triazol-2-yl)phenyl]ethoxy}-5-[1-(piperidin-3-yl)-1H-pyrazol-4-yl]pyridin-2-amine] | 10.8 | < 0.2
7 | C[C@@H](Oc1cc(-c2ccnc(F)c2F)cnc1N)c1cc(F)ccc1-n1nccn1 [Example 129, 2′,3′-difluoro-5-{(1R)-1-[5-fluoro-2-(2H-1,2,3-triazol-2-yl)phenyl]ethoxy}-3,4′-bipyridin-6-amine] | 223 | 5.5
8 | CNC(=O)c1nc(C)c(-c2cnc(N)c(O[C@H](C)c3cc(F)ccc3-n3nccn3)c2)s1 [Example 90, 5-(6-amino-5-{(1R)-1-[5-fluoro-2-(2H-1,2,3-triazol-2-yl)phenyl]ethoxy}pyridin-3-yl)-N,4-dimethyl-1,3-thiazole-2-carboxamide] | 58.9 | 1.2
9 | C[C@@H](Oc1cc(-c2ccc3c(c2)S(=O)(=O)CC3O)cnc1N)c1cc(F)ccc1-n1nccn1 (stereo partly drawn) [Example 110, 6-(6-amino-5-{(1R)-1-[5-fluoro-2-(2H-1,2,3-triazol-2-yl)pheny]ethoxy}pyridin-3-yl)-2,3-dihydro-1-benzothiophene-3-ol 1,1-dioxide] | 34.4 | 0.47
10 | Cc1n[nH]c(C)c1-c1cnc(N)c(O[C@H](C)c2cc(F)ccc2F)c1 [Example 48, 3-[(1R)-(2,5-difluorophenyl)-ethoxy]-5-(3,5-dimethyl-1H-pyrazol-4-yl)pyridin-2-amine] | – | 1.56

The remaining molecules from weak to strong by IC50 [1], led by results:

Row | IC50 [1] [nM] | Ki [2] [nM] | Structure (SMILES)
11 | 9.92 | < 0.2 | Cc1nc(CO)sc1-c1cnc(N)c(O[C@H](C)c2cc(F)ccc2-n2nccn2)c1 [Example 107, [5-(6-amino-5-{(1R)-1-[5-fluoro-2-(2H-1,2,3-triazol-2-yl)phenyl]ethoxy}pyridin-3-yl)-4-methyl-1,3-thiazol-2-yl]methanol]
12 | 9.9 | < 0.2 | C[C@@H](Oc1cc(-c2cnn(C3CCNC3)c2)cnc1N)c1cc(F)ccc1-n1nccn1 (stereo partly drawn) [Example 81, 3-{(1R)-1-[5-fluoro-2-(2H-1,2,3-triazol-2-yl)phenyl]ethoxy}-5-[1-(pyrrolidin-3-yl)-1H-pyrazol-4-yl]pyridin-2-amine]
13 | 9.38 | < 0.2 | CCc1nc(CO)sc1-c1cnc(N)c(O[C@H](C)c2cc(F)ccc2-n2nccn2)c1 [Example 108, [5-(6-amino-5-{(1R)-1-[5-fluoro-2-(2H-1,2,3-triazol-2-yl)phenyl]ethoxy}pyridin-3-yl)-4-ethyl-1,3-thiazol-2-yl]methanol]
14 | 9.29 | 0.26 | COc1cc(C(N)=O)ccc1-c1cnc(N)c(O[C@H](C)c2cc(F)ccc2-n2nccn2)c1 [Example 118, 4-(6-amino-5-{(1R)-1-[5-fluoro-2-(2H-1,2,3-triazol-2-yl)phenyl]ethoxy}pyridin-3-yl)-3-methoxybenzamide]
15 | 9.1 | 0.12 | CNCc1ccc(-c2cnc(N)c(OC(C)c3cc(F)ccc3OC)c2)cc1S(C)(=O)=O (stereo not drawn) [Example 134, 3-[1-(5-fluoro-2-methoxyphenyl)ethoxy]-5-{4-[(methylamino)methyl]-3-(methylsulfonyl)phenyl}pyridin-2-amine]
16 | 8.6 | 0.26 | COc1ccc(F)cc1C(C)Oc1cc(-c2ccc(CO)c(S(C)(=O)=O)c2)cnc1N (stereo not drawn) [Example 136, [4-{6-amino-5-[1-(5-fluoro-2-methoxyphenyl)ethoxy]pyridin-3-yl}-2-(methylsulfonyl)phenyl]methanol]
17 | 6.73 | < 0.2 | C[C@@H](Oc1cc(-c2ccnc(N3CCN(C)CC3)c2)cnc1N)c1cc(F)ccc1-n1nccn1 [Example 73, 5-{(1R)-1-[5-fluoro-2-(2H-1,2,3-triazol-2-yl)phenyl]ethoxy}-2′-(4-methylpiperazin-1-yl)-3,4′-bipyridin-6-amine]
18 | 6.58 | < 0.2 | C[C@@H](Oc1cc(-c2cnn(C3CCNCC3)c2)cnc1N)c1cc(F)ccc1-n1nccn1 [Example 80, 3-{(1R)-1-[5-fluoro-2-(2H-1,2,3-triazol-2-yl)phenyl]ethoxy}-5-[1-(piperidin-4-yl)-1H-pyrazol-4-yl]pyridin-2-amine]
19 | 4.15 | – | COCc1ccc(-c2cnc(N)c(OC(C)c3cc(F)ccc3OC)c2)cc1S(C)(=O)=O (stereo not drawn) [Example 135, 3-[1-(5-fluoro-2-methoxyphenyl)ethoxy]-5-[4-(methoxymethyl)-3-(methylsulfonyl)phenyl]pyridin-2-amine]
20 | 3.5 | < 0.2 | C[C@@H](Oc1cc(-c2cnn([C@@H]3C[C@H]4CC[C@@H](C3)N4)c2C#N)cnc1N)c1cc(F)ccc1-n1nccn1 [Example 141, 4-(6-amino-5-{(1R)-1-[5-fluoro-2-(2H-1,2,3-triazol-2-yl)phenyl]ethoxy}pyridin-3-yl)-1-[(3-exo)-8-azabicyclo[3.2.1]oct-3-yl]-1H-pyrazole-5-carbonitrile]
21 | 2.45 | < 0.2 | COc1ccc(-c2cnc(N)c(O[C@H](C)c3cc(F)ccc3-n3nccn3)c2)cc1S(N)(=O)=O [Example 144, 5-(6-amino-5-{(1R)-1-[5-fluoro-2-(2H-1,2,3-triazol-2-yl)phenyl]ethoxy}pyridin-3-yl)-2-methoxybenzenesulfonamide]
22 | 2.25 | 0.26 | C[C@@H](Oc1cc(-c2ccnc(N3CC(O)C3)c2F)cnc1N)c1cc(F)ccc1-n1nccn1 [Example 130, 1-(6-amino-3′-fluoro-5-{(1R)-1-[5-fluoro-2-(2H-1,2,3-triazol-2-yl)phenyl]ethoxy}-3,4′-bipyridin-2′-yl)azetidin-3-ol]
